Where two headings read alike, the source gives them in different places. Where a SMILES comes first, the peptide text is derived from it. The star is where a group is joined. Cbz = O=C(OCc1ccccc1)*
B1: dn-XBP: dominant negative XBP-1 containing the N-terminal 188 aa, lacking transactivation domain, retaining leucine zipper (protein)
chain: MVVVAAAPSAATAAPKVLLLSGQPASGGRALPLMVPGPRAAGSEASGTPQARKRQRLTHLSPEEKALRRKLKNRVAAQTARDRKKARMSELEQQVVDLEEENHKLQLENQLLREKTHGLVVENQELRTRLGMDTLDPDEVPEVEAKGSGVRLVAGSAESAAGAGPVVTSPEHLPMDSDTVASSDSESD

How the values were obtained:
[1] = system: XBP-1u and XBP-1s proteins; test: XBP-1u and XBP-1s protein levels in J558 cells (Western blot); assay type: cell-based
Procedure: (A) BiP and CHOP induction was examined by northern blot analysis after treating NIH3T3 or J558 myeloma cells with either MG-132 (20 μM), Tm (10 μg/ml) or both. Cells were pretreated with MG-132 for 1 hr and then further treated with Tm for 4 hrs. Ethidium bromide staining of the gel is shown at the bottom. (B) Inhibition of caspase-12 processing by proteasome inhibitors. Processing of full-length caspase-12 was examined by Western blotting in J558 myeloma cells treated with thapsigargin (1 μM) or PIs (20 μM) during the indicated time periods. (C) Alteration in the ratio of XBP-1 protein species in J558 cells were treated with increasing amounts of MG-132 for 16 hrs. Cells undergoing apoptosis were counted by Annexin V staining. (D) Time course of the XBP-1s to XBP-1u shift. Cells were treated with MG-132 (1 μM) for the indicated times and XBP-1u and spliced protein levels and cell death determined. (E) Alteration in the ratio of XBP-1 species in the MM.1s human myeloma line. Cells were treated with PS-341 (8 nM) in a time course analysis and XBP-1 protein species quantified.
Cells were lysed in RIPA buffer (50 mM Tris pH 7.4, 150 mM NaCl, 1 mM EDTA, 1% Triton X-100, 1% sodium deoxycholate, 0.1% SDS) and lysates subjected to SDS-PAGE and transferred to Hybond P membrane (Amersham-Pharmacia, Piscataway, N.J.). […] HeLa cells were cotransfected with XBP-1u and His-tagged ubiquitin expression plasmids (pMT 107, D. Bohmann, EMBL, Germany) by using the Lipofectamine-2000 reagent (Invitrogen, Carlsbad, Calif.). […] Degradation rates of XBP-1u and XBP-1s proteins were determined by pulse labeling J558 cells with ^35S Met/Cys for 1 hr and chasing for the indicated times.

XBP-1 and ATF6α = test: UPRE (5×ATF6GL3) reporter in MEF cells with dominant negative XBP-1; assay type: cell-based
Procedure: (A) The 5×ATF6GL3 reporter plasmid was cotransfected with either pCGNATF6α or XBP-u/s plasmids into MEF cells with or without the dominant negative XBP-1 expression plasmid. 100 ng DNA was used for each transfection except for pCDNA3.1, which was added to give 1 μg of DNA in total. Luciferase assays were performed as described in the legend to FIG. 18.(B) MEF and MEF-dn-XBP cells that stably express dominant negative XBP-1 protein were treated with 10 μg/ml Tm for the indicated time periods. Total RNAs were isolated and subjected to Northern blot analysis. The same blot was hybridized sequentially with BiP, CHOP, ERdj4, p58^ipk and ATF6α probes. Ethidium bromide staining of the gel before blotting is shown at the bottom as loading control.
To make 4×XBPGL3, two complementary oligonucleotides containing the XBP-1 binding site 5^f-CGCG(TGGATGACGTGTACA)4-3′ (SEQ ID NO: 12) and 5′-GATC(TGTACACGTCATCCA)4-3^f (SEQ ID NO: 13) were annealed and ligated to the—40-Luc plasmid (Lee et al. 2000. Biochem J. 350 Pt1:131-138) digested by Mlu I and Bgl II. The UPRE reporter was constructed by inserting an annealed oligonucleotide containing two UPRE motifs (Roy and Lee 1999 Nucleic Acids Res. 27:1437), 5′-cgcgtcaCCAATcggaggcctCCACGaccaCCAATcggaggcctCCACGac-3′, (SEQ ID NO: 14) to the 40-Luc plasmid between the Mlu I and Xho I sites (Lee et al. 2000. Biochem J. 350 Pt1:131-138). UPRE reporter (5×ATF6GL3), pCGNATF6 and pCGNAF6 (1-373) were previously described (Wang et al. 2000. J. Biol. Chem. 275:27013). The pCDNA3.1 ([…]) driven expression vectors for mouse XBP-1s and XBP-1u/s were described elsewhere (Iwakoshi et al. 2003. Nature Immunology 4:321). pCDNA-dn-XBP was constructed by removing the region downstream of the Eco RV site of XBP-1s cDNA in the pCDNA-XBP-1s plasmid. TREhyg-XBP-1s and TREhyg-dn-XBP were constructed by inserting the XBP-1s cDNA and DN-XBP, respectively, into TRE2 hyg (Clontech) between the Pvu II and Sal I sites. […]

| Molecule | XBP-1s protein level, time course ([1]; J558, MG-132 1 μM) | onset of XBP-1u increase ([1]; J558, MG-132 1 μM) | time of XBP-1u peak ([1]; J558, MG-132 1 μM) | XBP-1u accumulation and XBP-1s decrease ([1]; J558 cells, 16 hrs) | transactivation of the UPRE reporter by ATF6α / function of ATF6 (XBP-1 and ATF6α) | transactivation of the UPRE reporter by XBP-1s (XBP-1 and ATF6α) | transactivation of the UPRE reporter by ATF6α / function of ATF6 (XBP-1 and ATF6α; listed as dn-XBP-1) |
| --- | --- | --- | --- | --- | --- | --- | --- |
| CC(C)C[C@@H](C=O)NC(=O)[C@H](CC(C)C)NC(=O)[C@H](CC(C)C)NC(=O)OCc1ccccc1 [MG-132] (Cbz-Leu-Leu-Leu-aldehyde) | rapidly declined after 4 hours of treatment and was barely detectable by 16 hours | as early as one hour post treatment | 8 h | striking accumulation of XBP-1 u and a concomitant decrease in XBP-1s proteins |  |  |  |
| B1 |  |  |  |  | inhibited the transactivation of the UPRE reporter by ATF6α | completely abolished transactivation of the UPRE reporter by XBP-1s | potently inhibited the function of ATF-6 through heterodimerization |

Source: patent US20040170622A1, “Methods and compositions for modulating XBP-1 activity” (President and Fellows of Harvard College, priority 2002, published 2004)
